We go through eight compounds from ChEMBL document CHEMBL1201862, “PubChem BioAssay data set” (2004).

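Method: 48-hour compound exposure of cells in 96-well plates, five concentrations, linear interpolation of endpoints. GI50 is the concentration that inhibits growth by half.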 Calls of active or inactive are those of the source. Cut-off read from the data, not from the text of the source: active = GI50 up to about 1.1 µM and inactive = higher.

Among the test systems are 786-0; CAKI-1; CCRF-CEM; EKVX; HCT-15; HOP-62; HT-29; Hs-578T; M14; Malme-3M; NCI-H522; OVCAR-8; RPMI-8226; SF-295; SF-539; SW-620; T47D; TK-10; SF-268.
What all share (assay): NCI tumour cell line growth inhibition, 48 h

On to `Cc1nnc2sc(Cl)nn12`, for which the GI50 was 26.5 µM (inactive) with 786-0; 21 µM (inactive) in the test on CAKI-1; 3.85 µM (inactive) with CCRF-CEM; 24.9 µM (inactive) in the test on EKVX; 19.3 µM with HCT-15; 38 µM (inactive) in the test on HOP-62. In addition, the GI50 with HT-29 was 16.7 µM (inactive); with Hs-578T, 39.5 µM (inactive); in the test with M14, 13.6 µM (inactive); in the test on Malme-3M, 22.1 µM (inactive); with NCI-H522, 10 µM (inactive); with OVCAR-8, 32.9 µM (inactive). The GI50 in the test with RPMI-8226 is 6.1 µM (inactive); with SF-295 it was 17.7 µM (inactive); with SF-539, 20.9 µM (inactive); in the test with SW-620, 3.92 µM (inactive); in the test with T47D, 22.9 µM (inactive); with TK-10 it was 27.7 µM (inactive).

As for `O=C(CSc1nc2ccc(I)cc2c(=O)n1Cc1ccccc1)NNC(=O)c1ccccc1`, the GI50 is 8.97 µM (inactive) with 786-0; 2.89 µM (inactive) in the test with CAKI-1; 49.7 µM (inactive) in the test on CCRF-CEM; 4.06 µM (inactive) in the test with EKVX; 16.5 µM in the test on HCT-15; 8.02 µM (inactive) in the test on HOP-62. Besides, the GI50 with HT-29 was 19.8 µM (inactive); in the test on Hs-578T, 2.85 µM (inactive); with M14 it was 29.3 µM (inactive); in the test on NCI-H522 it was 6.4 µM (inactive); in the test on OVCAR-8, 8.3 µM (inactive); with RPMI-8226 it was 3.52 µM (inactive). Besides, the GI50 in the test with SF-268 is 6.79 µM (inactive); with SF-295, 11.4 µM (inactive); in the test on SF-539, 2.92 µM (inactive); in the test with SW-620 it was 36.1 µM (inactive); in the test with T47D it was 10.6 µM (inactive); in the test with TK-10, 11.8 µM (inactive).

For `CC(=O)c1c2c(cc3c1CC1(Cc4cc5c(cc4C1)CCCC5)C3)CCCC2`, the GI50 in the test on 786-0 was > 100 µM (inactive); with EKVX it was > 100 µM (inactive); in the test on HCT-15 it was 36.1 µM; in the test on HOP-62, > 100 µM (inactive); in the test on HT-29, 50.9 µM (inactive); with Hs-578T, > 100 µM (inactive). The GI50 is > 100 µM (inactive) in the test on M14; 94.8 µM (inactive) in the test on Malme-3M; 20.9 µM (inactive) in the test with NCI-H522; > 100 µM (inactive) in the test with OVCAR-8; 11.8 µM (inactive) in the test on RPMI-8226; 37.2 µM (inactive) in the test on SF-295. In addition, the GI50 in the test on SF-539, with T47D and in the test with TK-10 was > 100 µM (inactive) each time.

Turning to `CC1(C)Oc2ccc3ccc(=O)oc3c2C(O)C1O` (centres undefined), the GI50 in the test on 786-0 was 45 µM (inactive); with CAKI-1, 67.1 µM (inactive); with CCRF-CEM it was 31.7 µM (inactive); in the test on EKVX, 48.1 µM (inactive); with HCT-15 it was 41.9 µM; in the test with HOP-62 it was 36.1 µM (inactive). For the same compound, the GI50 in the test on HT-29 was 28.1 µM (inactive); in the test on Hs-578T, 52.1 µM (inactive); with M14, 36.6 µM (inactive); in the test on Malme-3M, 40.3 µM (inactive); in the test with NCI-H522, 33.7 µM (inactive); in the test on OVCAR-8, 34 µM (inactive). In addition, the GI50 in the test with RPMI-8226 was 30.2 µM (inactive); in the test with SF-268, 40.6 µM (inactive); in the test with SF-295 it was 36.1 µM (inactive); with SF-539, 22.9 µM (inactive); in the test on SW-620, 61.1 µM (inactive); in the test on T47D, 35.3 µM (inactive).

`O=C(COc1ccc(OCC(=O)N2C(=O)CN(c3ccccc3)C2=S)cc1)N1C(=O)CN(c2ccccc2)C1=S`: the GI50 with 786-0 was > 57 µM (inactive); in the test on CAKI-1, > 57.7 µM (inactive); with EKVX, > 53.6 µM (inactive); in the test with HCT-15, more than 54.1 µM; in the test with HOP-62 it was > 53.2 µM (inactive); with HT-29, > 56.9 µM (inactive). The GI50 in the test with Hs-578T was > 64.4 µM (inactive); in the test on M14, > 57.9 µM (inactive); in the test with Malme-3M, > 25 µM (inactive); in the test with NCI-H522, > 61.2 µM (inactive); in the test with OVCAR-8 it was > 55.2 µM (inactive); with RPMI-8226 it was > 100 µM (inactive). For the same compound, the GI50 is > 59.4 µM (inactive) in the test with SF-268; > 53 µM (inactive) in the test on SF-295; > 100 µM (inactive) with SF-539; > 100 µM (inactive) in the test on SW-620; > 58.3 µM (inactive) in the test with T47D; > 54.7 µM (inactive) in the test on TK-10.

In the case of `Cn1ccnc1Oc1ccc(Cl)cc1`, the GI50 is 11.5 µM (inactive) with 786-0; 19.8 µM (inactive) in the test with EKVX; 11.7 µM with HCT-15; 26.2 µM (inactive) with HOP-62; 13.7 µM (inactive) with HT-29; 24.4 µM (inactive) in the test with Hs-578T. The GI50 with M14 was 13.7 µM (inactive); with Malme-3M, 2.28 µM (inactive); with NCI-H522 it was 2.28 µM (inactive); in the test with OVCAR-8 it was 7.69 µM (inactive); in the test on RPMI-8226, 0.49 µM (active); in the test on SF-268, 28.5 µM (inactive). The GI50 in the test on SF-539 is 11.9 µM (inactive); with SW-620 it was 13 µM (inactive); with T47D it was 2.18 µM (inactive); in the test on TK-10, 18.7 µM (inactive).

For the compound `CC1(C)[C@H]2CC[C@]1(C)[C@H](OC(=O)NNC(=O)O[C@@H]1C[C@@H]3CC[C@@]1(C)C3(C)C)C2`, the GI50 in the test with 786-0 was 17.8 µM (inactive); in the test with CAKI-1, 15.5 µM (inactive); in the test on CCRF-CEM it was 20.3 µM (inactive); in the test on EKVX it was 12.6 µM (inactive); with HCT-15, 12.5 µM; with HOP-62 it was 14.9 µM (inactive). Moreover, the GI50 in the test with HT-29 is 5.7 µM (inactive); in the test with Hs-578T it was 14.2 µM (inactive); in the test with M14 it was 15.5 µM (inactive); in the test on Malme-3M, 16.1 µM (inactive); with NCI-H522, 13 µM (inactive); in the test on RPMI-8226, 10.5 µM (inactive). Besides, the GI50 in the test on SF-268 is 15.6 µM (inactive); in the test on SF-295, 13.8 µM (inactive); in the test on SF-539, 14.4 µM (inactive); in the test on SW-620, 19.4 µM (inactive); with T47D, 7.1 µM (inactive); with TK-10 it was 20.6 µM (inactive).

In the case of `Cc1ccc(S(=O)(=O)N/N=c2/sc3ccccc3n2C)cc1`, the GI50 with 786-0 is > 100 µM (inactive); in the test with CAKI-1, > 100 µM (inactive); in the test on CCRF-CEM it was > 100 µM (inactive); in the test on EKVX, > 100 µM (inactive); with HCT-15, more than 100 µM; in the test on HOP-62 it was > 100 µM (inactive). Further, the GI50 is > 100 µM (inactive) in the test on HT-29; > 100 µM (inactive) in the test with Hs-578T; > 100 µM (inactive) in the test on Malme-3M; 33.7 µM (inactive) in the test on NCI-H522; > 100 µM (inactive) with OVCAR-8; > 100 µM (inactive) with RPMI-8226. The GI50 with SF-268, with SF-295, with SF-539, in the test with SW-620, with T47D and with TK-10 was > 100 µM (inactive) throughout.
